The conditions of data set [1]: from C=CCCC[C@@H]1[C@H]2C[C@H]2C[C@H]1OC(=O)N[C@H](C(=O)N1C[C@H](Oc2nc3cc(Cl)ccc3nc2C=C)C[C@H]1C(=O)OC)C(C)(C)C; rcm bond; Zhan Catalyst-1B; DCE; 4.97 mM; 83.0 °C; 0.67 h.
The subject of data set [2] is genotype 3a stable HCV replicon (S52) in Huh-7-derived cells. Description: Stable subgenomic HCV replicon, genotype 3a, Renilla luciferase. In kind it is cell-based. As to conditions: Hepatitis C virus, 72 h, read-out: EC50 3A RLUC. As to the method: (§1) Antiviral potency (EC50) was determined in both stable subgenomic HCV replicon cell lines and transient-transfected HCV replicon cells. The term half maximal effective concentration (EC50) refers to the concentration of a drug which induces a response halfway between the baseline and maximum after the exposure time specified below.
(§2) Stable subgenomic HCV replicons for genotype 1a, 1b, 2a, 3a, and 4a were established in Huh-7-derived cells as described by Lohmann et al (Lohmann V, Korner F, Koch J, et al Replication of subgenomic hepatitis C virus RNAs in a hepatoma cell line. Science 1999; 285:119-3). Each stable cell line contains a bicistronic HCV replicon that encodes a humanized Renilla luciferase (hRLuc) reporter gene fused to a selectable neomycin-resistance gene, followed by an EMCV IRES and the NS3-NS5B coding region of HCV. […] Luciferase activity was measured as a marker for intracellular HCV replication levels.
(§3) The genotype 1a stable replicon was derived from the H77 HCV strain and contained adaptive mutations P1496L and S2204I. The genotype 1b stable replicon was derived from the Con1 HCV strain and contained adaptive mutations E1202G, T1280I, and K1846T. […] The genotype 3a stable replicon was derived from the S52 HCV strain and contained adaptive mutations P1121 L, A1198T and S2210I (equivalent to S2204I in genotype 1). The genotype 4a stable replicon was derived from the ED43 HCV strain and contained adaptive mutations Q1691R and S2204I. All replicon cell lines were propagated in Huh-7-derived cells and maintained in Dulbecco's modified Eagle's Medium (DMEM) supplemented with 10% fetal bovine serum (FBS) and 0.5 mg/ml G418.
(§4) To perform EC50 assays, cells from each HCV replicon were dispensed into 384-well plates. Compounds were dissolved in DMSO at a concentration of 10 mM and diluted in DMSO using an automated pipetting instrument. Three-fold serially diluted compounds were directly added to the cells using an automated instrument. DMSO was used as a negative (solvent; no inhibition) control, and a combination of three HCV inhibitors including a protease inhibitor; an NS5A inhibitor and a nucleoside inhibitor was used at concentrations >100×EC50 as a positive control (100% inhibition). Seventy-two hours later, cells were lysed and Renilla luciferase activity were quantified as recommended by the manufacturer (Promega-Madison, Wis.). Non-linear regression was performed to calculate […], values.

Another data set concerns the target T1, NS3 genotype 3a protease (UniProt Q81258).
T1 construct: Purified NS3 protease domain (amino acids 1-181) of the genotype 1b and 3a virus were generated as above; fused on or other part: N-terminal hexahistidine tag with an rTEV protease cleavage site (vector p28-N6H-Tev-NS3(181)3)
T1 sequence (Q81258 1033-1663): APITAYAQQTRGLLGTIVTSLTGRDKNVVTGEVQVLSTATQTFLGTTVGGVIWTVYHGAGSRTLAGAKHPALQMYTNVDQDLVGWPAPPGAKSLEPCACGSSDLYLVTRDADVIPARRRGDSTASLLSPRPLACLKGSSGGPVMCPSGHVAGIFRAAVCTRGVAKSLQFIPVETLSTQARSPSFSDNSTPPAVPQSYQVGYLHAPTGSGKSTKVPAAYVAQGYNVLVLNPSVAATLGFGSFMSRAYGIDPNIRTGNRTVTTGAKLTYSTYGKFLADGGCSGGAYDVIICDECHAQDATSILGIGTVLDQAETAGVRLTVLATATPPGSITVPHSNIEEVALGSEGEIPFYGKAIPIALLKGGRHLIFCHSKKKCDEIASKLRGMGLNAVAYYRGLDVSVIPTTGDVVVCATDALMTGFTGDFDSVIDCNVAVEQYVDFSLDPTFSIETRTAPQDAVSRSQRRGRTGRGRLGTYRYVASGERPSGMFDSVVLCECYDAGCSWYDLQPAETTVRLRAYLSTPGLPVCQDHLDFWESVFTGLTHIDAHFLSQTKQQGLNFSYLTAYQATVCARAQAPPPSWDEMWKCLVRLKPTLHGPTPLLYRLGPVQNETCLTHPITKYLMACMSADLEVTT
The experiment in a line: Ki determination, NS3 protease genotype 3a (fluorogenic depsipeptide substrate). In kind it is biochemical, hepatitis C virus. The following applies: NS3 protease domain genotype 3a, NS4A peptide. From the text: (§5) Ki Determination for Genotypes 1b and 3a NS3 Protease.
(§6) Purified NS3 protease domain (amino acids 1-181) of the genotype 1b and 3a virus were generated as above. The internally quenched fluorogenic depsipeptide substrate Ac-DED(Edans)-EEAbuψ[COO]ASK(Dabcyl)-NH2 and a synthetic peptide containing the hydrophobic core residues of the NS4A protein cofactor ([…]; NS4A peptide) were obtained from Anaspec, Inc. (San Jose, Calif.). Other chemicals and biochemicals were of reagent grade or better and were purchased from standard suppliers.
(§7) Reactions were run at room temperature in buffer consisting of 50 mM HEPES, 40% glycerol, 0.05% Triton X-100, 10 mM DTT, and 10% DMSO. The final assay solutions contained 50 pM NS3 genotype 1b protease or 200 pM genotype 3a protease, 20 μM NS4A peptide, and 4 μM substrate (genotype 1b) or 2 μM substrate (genotype 3a). Inhibitor concentrations varied from 100 nM to 5 pM in 3-fold dilutions, and no-inhibitor controls were included.
(§8) Compound dilutions were made in DMSO at 20× final concentration. Reaction mixtures were prepared in 96-well assay plates. A solution of enzyme and NS4A peptide in assay buffer (25 μL volume with both reagents at 4× final concentration) was mixed with 45 μL assay buffer and 5 μL of either inhibitor or DMSO, and pre-incubated at room temperature for 1 hour. The reaction was started by addition of 25 μL substrate solution at 4× final concentration. Plates were mixed vigorously for 5-10 seconds and reactions were allowed to proceed for 90 minutes. Fluorescence was measured every 30 s between 90 and 120 minutes reaction time using a Tecan InfiniTe M1000 or PerkinElmer Envision multimode plate reader with an excitation wavelength of 340 nm and an emission wavelength of 490 nm.
(§9) Rates were calculated from the progress curves at steady state, in the time frame of 90-120 minutes after addition of substrate. To determine the Ki, rates were plotted as a function of inhibitor concentration, and the data were fit with equation 1 (Morrison, J. F., Biochimica et Biophysica Acta 1969, 185, 269-286) to calculate Ki^app using GraphPad Prism 5. Active fraction of enzyme was determined by active site titration with known potent inhibitors. Ki was calculated from Ki^app/(1+[[S]/Km]).

The target of a further data set is T2, NS3 genotype 1b protease (Hepatitis C virus genotype 1b, UniProt Q9WMX2, E1202G).
T2 construct: Purified NS3 protease domain (amino acids 1-181) of the genotype 1b and 3a virus were generated as above; K3 hexahistidine tag (N); rTEV protease cleavage site (N); made in house; host or cells: E. coli BL21AI
Description: Ki determination, NS3 protease genotype 1b (fluorogenic depsipeptide substrate). The format is biochemical. The following applies: NS3 protease domain genotype 1b, NS4A peptide.
From the text: as §5, §6, §7, §8, §9

Data set [3] deals with genotype 2a stable HCV replicon (JFH-1) in Huh-7-derived cells. The experiment in a line: Stable subgenomic HCV replicon, genotype 2a, Renilla luciferase. The format is cell-based. The following applies: Hepatitis C virus, stable replicon genotype 2a, 72 h, read-out: EC50 2A RLUC. As to the method: as §1, §2, §3, §4
Background: Replicon systems follow genome replication, usually without infectious particles.

Data set [4] deals with genotype 1a stable HCV replicon (H77) in Huh-7-derived cells. The experiment in a line: Stable subgenomic HCV replicon, genotype 1a, Renilla luciferase. The format is cell-based. As to conditions: Hepatitis C virus, stable replicon genotype 1a, 72 h, read-out: EC50 1A RLUC. As to the method:
as §1, §2, §3, §4

The subject of data set [5] is genotype 1b stable HCV replicon (Con1) in Huh-7-derived cells. Description: Stable subgenomic HCV replicon, genotype 1b, Renilla luciferase. The format is cell-based. As to conditions: Hepatitis C virus, stable replicon genotype 1b, 72 h, read-out: EC50 1B RLUC. As to the method:
as §1, §2, §3, §4

Data set [6] concerns genotype 4a stable HCV replicon (ED43) in Huh-7-derived cells. Description: Stable subgenomic HCV replicon, genotype 4a, Renilla luciferase. In kind it is cell-based. The following applies: Hepatitis C virus, 72 h, read-out: EC50 4A RLUC. As to the method:
as §1, §2, §3, §4

Data set [7] has as its system NS3/4a protease inhibitor resistant variant R155K in genotype 1a transient HCV replicon. The experiment in a line: Transient-transfected HCV replicon, genotype 1a R155K. The format is cell-based. As to conditions: Hepatitis C virus, 72 h, read-out: EC50 1A R155K.
Data set [8] concerns genotype 1a (H77) wild-type transient HCV replicon in Huh-7-derived cells. The experiment in a line: Transient-transfected HCV replicon, genotype 1a wild type. The format is cell-based. As to conditions: Hepatitis C virus; transient-transfected replicon genotype 1a wild type, 72 h; read-out: EC50 1A WT.
Data set [9] has as its system NS3/4a protease inhibitor resistant variant D168A in genotype 1b transient HCV replicon. The experiment in a line: Transient-transfected HCV replicon, genotype 1b D168A. The following applies: Hepatitis C virus, 72 h, read-out: EC50 1B D168A. In kind it is cell-based.
Data set [10] deals with genotype 1b wild-type transient HCV replicon in Huh-7-derived cells. Description: Transient-transfected HCV replicon, genotype 1b wild type. The format is cell-based. The following applies: Hepatitis C virus; transient-transfected replicon genotype 1b wild type, 72 h; read-out: EC50 1B WT.
Data set [11] concerns genotype 3a transient HCV replicon (S52) in Huh-7-derived cells. Description: Transient-transfected HCV replicon, genotype 3a wild type. As to conditions: Hepatitis C virus; transient-transfected replicon genotype 3a wild type, 72 h; read-out: EC50 3A WT. The format is cell-based.

T2 sequence (Q9WMX2 1027-1207 E1202G, other chains not shown): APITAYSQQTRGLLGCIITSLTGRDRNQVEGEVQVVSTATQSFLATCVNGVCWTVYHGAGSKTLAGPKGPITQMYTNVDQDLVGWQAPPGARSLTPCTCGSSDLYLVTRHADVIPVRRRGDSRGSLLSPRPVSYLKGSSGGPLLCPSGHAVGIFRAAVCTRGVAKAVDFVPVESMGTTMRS

On to `COC(=O)[C@@H]1C[C@@H]2CN1C(=O)[C@H](C(C)(C)C)NC(=O)O[C@@H]1C[C@@H]3C[C@@H]3[C@H]1CCCC=Cc1nc3ccc(Cl)cc3nc1O2`, for which, in data set [1], the ring closure, yield of all isomers turned out to be 56.6%.

For orientation: EC50 means the concentration at which the effect is half-maximal. One may read the Ki as a measure of affinity in units of concentration, obtained from inhibition or displacement. In the case of `COc1ccc2nc3c(nc2c1)O[C@@H]1C[C@@H](C(=O)N[C@]2(C(=O)NS(=O)(=O)C4CC4)C[C@H]2C(F)F)N(C1)C(=O)[C@H](C(C)(C)C)NC(=O)O[C@H]1[C@@H]2CC[C@@H](C2)[C@@H]1CCCCC3` [Example 6, (1S,4R,4aS,8S,11S,13R,25aS)-8-tert-butyl-N-[(1R,2R)-1-[(cyclopropylsulfonyl)carbamoyl]-2-(difluoromethyl)cyclopropyl]-17-methoxy-6,9-dioxo-2,3,4,4a,6,7,8,9,12,13,21,22,23,24,25,25a-hexadecahydro-1H,11H-1, 4:10,13-dimethanoquinoxalino[2,3-k][1,10,3,6]benzodioxadiazacyclononadecine-11-carboxamide], the EC50 stood at 3840 nM in data set [2]; 294 nM in data set [3]; 723 nM in [4]; 581 nM in [5]; 433 nM in data set [6]. For the same compound, the figures for the inhibition constant (Ki) on NS3 genotype 3a protease and on NS3 genotype 1b protease were 1.2 nM and 0.01 nM, respectively.

Take `COc1ccc2c(=O)n3c(nc2c1)O[C@@H]1C[C@@H](C(=O)N[C@]2(C(=O)NS(=O)(=O)C4(C)CC4)C[C@H]2C(F)F)N(C1)C(=O)[C@H](C(C)(C)C)NC(=O)O[C@@H]1C[C@@H]2C[C@@H]2[C@H]1CCCCC3` [Example 26, (1aS,2aR,6S,9S,11R,24aR,24bS)-6-tert-butyl-N-[(1R,2R)-2-(difluoromethyl)-1-{[(1-methylcyclopropyl)sulfonyl]carbamoyl}cyclopropyl]-15-methoxy-4,7,18-trioxo-1a,2,2a,4,5,6,7,10,11,20,21,22,23,24,24a,24b-hexadecahydro-1H,9H,18H-8,11-methanocyclopropa[4′,5′]cyclopenta[1′,2′:18,19][1,10,3,6,12]dioxatriazacyclonona decino[11,12-b]quinazoline-9-carboxamide]: the EC50 was 1 nM in data set [7]; 1.83 nM in data set [5]; 0.8 nM in [8]; 0.9 nM in data set [9]; 0.4 nM in data set [10]; 4.5 nM in data set [11].

The record behind these values is patent publication US9617310B2 (priority 2013, dated 2017).
